#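 Five compound concentrations were applied to cells in 96-well plates for 48 hours; endpoints were derived by simple linear interpolation of the resulting dose-response curve. GI50 is the concentration that inhibits growth by half. The concentration for full growth arrest is given as TGI.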
# Experiments:
# Test in all cases: inhibition of tumour cell growth, NCI panel, 48 h
# OVCAR-5 ovarian = system: OVCAR-5 ovarian
# NCI-H460 lung = system: NCI-H460 lung
# LOX IMVI melanoma = system: LOX IMVI melanoma
# HOP-92 NSCLC = system: HOP-92 NSCLC
# M14 melanoma = system: M14 melanoma
# HCT-116 colon = system: HCT-116 colon
# T-47D breast = system: T-47D breast
# MALME-3M melanoma = system: MALME-3M melanoma
# HOP-62 NSCLC = system: HOP-62 NSCLC
# NCI/ADR-RES ovarian = system: NCI/ADR-RES ovarian
# HCC-2998 colon = system: HCC-2998 colon
SMILES,TGI (OVCAR-5 ovarian) [µM],TGI (NCI-H460 lung) [µM],TGI (LOX IMVI melanoma) [µM],TGI (HOP-92 NSCLC) [µM],TGI (M14 melanoma) [µM],TGI (HCT-116 colon) [µM],TGI (T-47D breast) [µM],TGI (MALME-3M melanoma) [µM],TGI (HOP-62 NSCLC) [µM],TGI (NCI/ADR-RES ovarian) [µM],TGI (HCC-2998 colon) [µM],GI50 (NCI-H460 lung) [µM],GI50 (HOP-92 NSCLC) [µM],GI50 (T-47D breast) [µM],GI50 (NCI/ADR-RES ovarian) [µM],GI50 (HCC-2998 colon) [µM],GI50 (OVCAR-5 ovarian) [µM],GI50 (LOX IMVI melanoma) [µM],GI50 (MALME-3M melanoma) [µM],GI50 (HOP-62 NSCLC) [µM]
O=C(O)Cc1[nH]cnc1C(=O)O,> 100,> 100,> 100,> 100,> 100,> 100,> 100,> 100,> 100,> 100,> 100,–,–,–,–,–,–,–,–,–
COc1ccc(/C=C/[N+](=O)[O-])cc1,50.8,55.3,–,–,6.48,> 100,–,35.3,> 100,> 100,2.73,–,–,–,–,–,–,–,–,–
CSc1sc(=S)sc1SC,> 100,> 100,> 100,> 100,–,> 100,–,> 100,> 100,54.3,> 100,–,–,–,–,–,–,–,–,–
COc1ccc(/C(Cl)=C(\C=O)c2ccc(Cl)c(Cl)c2)cc1OC,–,12.4,13.6,13.8,26.3,15.2,–,42.5,31.7,–,–,–,–,–,–,–,–,–,–,–
COc1cc2c3c(c4cc(OC)c(OC)cc4c2cc1OC)[C@H](O)[C@@H]1CCCN1C3,0.732,0.72,2.75,2.32,2.06,7.64,2.53,6.69,0.57,2.97,–,–,–,–,–,–,–,–,–,–
C[C@H](CCC1=NCCN1)[C@H]1CC[C@H]2[C@@H]3CC[C@@H]4C[C@H](O)CC[C@]4(C)[C@H]3CC[C@]12C,34.7,> 33.9,4.76,19.5,> 22.6,> 36.9,> 51.8,7.76,20.9,39.5,24.6,–,–,–,–,–,–,–,–,–
S=C1NN=C2C(=C3CCCC4C5CCCCC5N2C34)N1 (stereo unspecified),> 100,–,> 100,> 100,> 100,–,> 100,> 100,> 100,> 100,–,–,–,–,–,–,–,–,–,–
COc1cc2c3c(n(C4CCNCC4)c(=O)c2cc1OC)-c1cc2c(cc1C3=O)OCO2,–,0.276,–,28.3,–,–,2.38,–,–,4,2.71,0.119,2.45,0.395,0.823,1.34,–,–,–,–
CCCCCCCCCCCCCCCCOCCCOP(=O)(O)C1CCCN(O)C1=O (stereo unspecified),18.6,4.51,11.4,40,–,–,27.5,10.8,18.6,25.6,14.6,0.375,6.08,6.15,4.02,1.11,1.63,2.86,2.64,0.837
NC(=O)c1cc(C2OC(CO)C(O)C2O)nn1-c1ccc([N+](=O)[O-])cc1 (stereo unspecified),> 100,> 100,> 100,> 100,> 100,> 100,–,> 100,> 100,–,> 100,–,–,–,–,–,–,–,–,–
